Measurements: ChEMBL document CHEMBL1201862, “PubChem BioAssay data set” (2004)
The source made the active and inactive calls.

Tests used:
[1] = intracellular Trypanosoma cruzi inhibitors in host cells – cell-based, plate reader, cherry-pick samples, set 3, dose response (AID 651818); type: functional;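 further: compounds incubated with infected cells for about four days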
Vero = assay: cells; type: functional; conditions: Chlorocebus sabaeus
cells [2] = type: functional, cell-based
cells [3] = type: functional, cell-based; remark: listed apart in the source
P388 = assay: cells; type: functional; conditions: Mus musculus
SN12K1 = assay: cells; type: functional; conditions: Homo sapiens
P388/ADR = assay: cells; type: functional; conditions: Mus musculus
Cytochrome P450 3A4 = Cytochrome P450 3A4 (Homo sapiens, UniProt P08684);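 further: CYP3A4 tested as one member of a cytochrome P450 panel screen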
Cytochrome P450 3A4, sequence (P08684 whole entry): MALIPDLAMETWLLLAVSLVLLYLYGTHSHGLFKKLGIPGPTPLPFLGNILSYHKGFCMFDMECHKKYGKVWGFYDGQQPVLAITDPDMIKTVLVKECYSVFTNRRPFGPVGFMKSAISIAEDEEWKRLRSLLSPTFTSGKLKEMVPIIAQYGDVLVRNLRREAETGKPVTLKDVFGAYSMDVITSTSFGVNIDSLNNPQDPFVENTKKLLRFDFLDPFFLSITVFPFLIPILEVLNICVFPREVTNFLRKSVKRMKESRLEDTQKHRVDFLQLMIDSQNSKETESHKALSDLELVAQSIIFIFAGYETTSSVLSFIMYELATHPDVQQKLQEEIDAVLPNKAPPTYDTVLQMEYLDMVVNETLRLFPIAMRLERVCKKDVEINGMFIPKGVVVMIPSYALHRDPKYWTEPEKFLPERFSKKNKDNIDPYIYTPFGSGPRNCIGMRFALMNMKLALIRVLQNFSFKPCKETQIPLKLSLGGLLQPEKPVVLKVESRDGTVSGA

[4] = A cytotoxicity screen of small molecule inhibitors of the PhoP region in Salmonella typhi identified in the primary screen. [Related pubchem assays: 1850, 1864, 1985 ]; type: functional
Cytochrome P450 2D6 = Cytochrome P450 2D6 (Homo sapiens, UniProt P10635);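 further: CYP2D6 member of a cytochrome P450 panel assay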
Cytochrome P450 2D6, sequence (P10635 whole entry): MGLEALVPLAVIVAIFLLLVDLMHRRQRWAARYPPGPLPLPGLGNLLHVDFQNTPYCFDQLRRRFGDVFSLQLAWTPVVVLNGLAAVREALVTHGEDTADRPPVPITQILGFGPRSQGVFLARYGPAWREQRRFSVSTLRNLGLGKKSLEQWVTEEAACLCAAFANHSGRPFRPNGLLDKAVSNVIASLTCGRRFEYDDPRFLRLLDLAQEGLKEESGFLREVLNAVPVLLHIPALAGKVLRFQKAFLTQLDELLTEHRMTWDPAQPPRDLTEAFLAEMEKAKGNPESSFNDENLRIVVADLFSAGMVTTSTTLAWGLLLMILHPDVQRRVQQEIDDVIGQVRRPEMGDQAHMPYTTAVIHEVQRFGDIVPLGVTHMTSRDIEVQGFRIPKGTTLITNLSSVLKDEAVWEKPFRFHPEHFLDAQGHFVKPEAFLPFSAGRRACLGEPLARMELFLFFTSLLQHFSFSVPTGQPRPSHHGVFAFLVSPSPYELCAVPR

[5] = biological target: T1, Rac GTPase-activating protein 1 (Homo sapiens, UniProt Q9H0H5); assay: blockers of MgcRacGAP-driven Rac1 GTP hydrolysis – biochemical, ADP Hunter fluorescence, primary and confirmatory, confirmation (AID 624330); type: functional
T1 sequence (Q9H0H5 whole entry): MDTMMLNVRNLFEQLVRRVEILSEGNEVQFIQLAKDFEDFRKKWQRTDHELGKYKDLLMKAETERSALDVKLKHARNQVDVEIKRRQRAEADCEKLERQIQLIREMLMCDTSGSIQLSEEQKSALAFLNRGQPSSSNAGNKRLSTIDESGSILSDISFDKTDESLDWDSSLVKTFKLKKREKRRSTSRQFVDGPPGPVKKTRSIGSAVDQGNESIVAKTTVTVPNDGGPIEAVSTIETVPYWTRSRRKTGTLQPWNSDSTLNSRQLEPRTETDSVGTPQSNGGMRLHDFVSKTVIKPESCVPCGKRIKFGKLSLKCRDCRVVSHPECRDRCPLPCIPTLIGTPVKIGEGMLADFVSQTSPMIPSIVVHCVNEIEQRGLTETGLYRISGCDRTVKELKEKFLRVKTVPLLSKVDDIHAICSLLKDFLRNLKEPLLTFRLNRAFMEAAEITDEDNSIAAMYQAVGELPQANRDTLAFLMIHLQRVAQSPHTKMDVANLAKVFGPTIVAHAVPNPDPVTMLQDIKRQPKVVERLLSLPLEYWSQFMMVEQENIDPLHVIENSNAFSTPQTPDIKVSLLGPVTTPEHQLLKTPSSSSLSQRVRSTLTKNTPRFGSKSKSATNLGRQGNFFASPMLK

[6] = biological target: Dual specificity tyrosine-phosphorylation-regulated kinase 1A (Rattus norvegicus, UniProt Q63470); type: biochemical, Homo sapiens
[7] = biological target: T2, Heat shock factor protein 1 (Mus musculus, UniProt P38532); assay: enhancement of HSF1-driven luciferase signal – cell-based, NIH3T3, luminescence, dose retest, confirmation (AID 435004); type: functional;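 further: stress induced by proteasome inhibitor MG132 added 30 min after compound; luciferase reporter driven by HSF1 response element in NIH3T3 cells; actives raise luminescence as potentiators of the MG132 stress response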
T2 sequence (P38532 whole entry): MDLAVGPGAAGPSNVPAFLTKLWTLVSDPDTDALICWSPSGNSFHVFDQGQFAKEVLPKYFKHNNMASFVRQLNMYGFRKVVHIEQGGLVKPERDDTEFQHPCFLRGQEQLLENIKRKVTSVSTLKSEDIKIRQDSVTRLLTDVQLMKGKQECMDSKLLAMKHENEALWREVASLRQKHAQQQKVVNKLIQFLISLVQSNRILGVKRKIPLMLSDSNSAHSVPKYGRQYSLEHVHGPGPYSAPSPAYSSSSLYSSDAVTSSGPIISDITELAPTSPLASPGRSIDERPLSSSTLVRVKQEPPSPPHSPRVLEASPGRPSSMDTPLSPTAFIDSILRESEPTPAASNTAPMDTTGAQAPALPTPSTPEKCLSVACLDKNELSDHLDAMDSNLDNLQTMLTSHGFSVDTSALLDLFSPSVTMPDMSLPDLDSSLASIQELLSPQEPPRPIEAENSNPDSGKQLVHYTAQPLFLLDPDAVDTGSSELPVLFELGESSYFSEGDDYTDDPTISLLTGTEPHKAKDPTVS

[8] = HEK-293T viability loss after treatment – luminescence, T-cell screen hits, cytotoxicity control for TCR NF-kB inhibitor project, dose response (AID 489026); type: functional, cell-based;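 further: cells exposed to compound about 14 hours before the viability readout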
BJ [9] = assay: BJ-TERT-LT-ST fibroblast viability loss – cell-based, RAS-independent, luminescence, dose response (AID 1935); type: functional; conditions: Homo sapiens;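 further: BJ fibroblasts immortalized with TERT plus LT and ST oncogenes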
[10] = NIH-3T3 fibroblast cytotoxicity, dose response, cytotoxicity control, cell-based, fluorescence, Alamar Blue, secondary assay (AID 2327); type: functional;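 further: NIH-3T3 mouse fibroblasts cultured with fluconazole at 8 µg/mL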
Nonstructural protein 1 = Nonstructural protein 1 (Influenza A virus, UniProt Q194T2); type: functional, Influenza A virus (A/California/07/2009(H1N1))
Nonstructural protein 1, sequence (Q194T2 whole entry): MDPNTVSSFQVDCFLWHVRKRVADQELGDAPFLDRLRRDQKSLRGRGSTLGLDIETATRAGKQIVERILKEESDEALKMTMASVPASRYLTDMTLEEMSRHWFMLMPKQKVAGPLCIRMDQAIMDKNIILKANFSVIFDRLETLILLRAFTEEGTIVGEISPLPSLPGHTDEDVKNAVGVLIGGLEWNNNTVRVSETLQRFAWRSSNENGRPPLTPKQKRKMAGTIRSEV

INS1 = assay: INS-1E survival protection against cytokine death – cell-based, luminescence, retest, dose response (AID 449756); type: functional; conditions: Rattus norvegicus;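 further: cell death triggered by IL-1 beta plus TNF-alpha plus IFN-gamma mixture; protective hits raise ATP signal compared with cytokine alone wells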
[11] = fluconazole-exposed Candida albicans growth modulators – fluorescence, retest, confirmation (AID 2467); type: functional, cell-based
[12] = DRD fibroblast viability loss – cell-based, non-viral oncogenic, luminescence, dose response (AID 1934); type: functional; conditions: Homo sapiens
BJ [13] = assay: cells; type: functional, cell-based; conditions: Homo sapiens
BJ [14] = assay: BJ-TERT fibroblast viability loss – cell-based, RAS-independent, luminescence, dose response (AID 1933); type: functional; conditions: Homo sapiens
Fatty acid synthase [15] = biological target: T3, Fatty acid synthase (Homo sapiens, UniProt P49327); assay: inhibition of human FAS-TE enzyme activity – biochemical, endpoint fluorescence intensity, uHTS hits, dose response (AID 624327); type: functional;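 further: fluorescence from hydrolysis of an O-methyl fluorescein acyl ester substrate by the enzyme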
T3 sequence (P49327 whole entry): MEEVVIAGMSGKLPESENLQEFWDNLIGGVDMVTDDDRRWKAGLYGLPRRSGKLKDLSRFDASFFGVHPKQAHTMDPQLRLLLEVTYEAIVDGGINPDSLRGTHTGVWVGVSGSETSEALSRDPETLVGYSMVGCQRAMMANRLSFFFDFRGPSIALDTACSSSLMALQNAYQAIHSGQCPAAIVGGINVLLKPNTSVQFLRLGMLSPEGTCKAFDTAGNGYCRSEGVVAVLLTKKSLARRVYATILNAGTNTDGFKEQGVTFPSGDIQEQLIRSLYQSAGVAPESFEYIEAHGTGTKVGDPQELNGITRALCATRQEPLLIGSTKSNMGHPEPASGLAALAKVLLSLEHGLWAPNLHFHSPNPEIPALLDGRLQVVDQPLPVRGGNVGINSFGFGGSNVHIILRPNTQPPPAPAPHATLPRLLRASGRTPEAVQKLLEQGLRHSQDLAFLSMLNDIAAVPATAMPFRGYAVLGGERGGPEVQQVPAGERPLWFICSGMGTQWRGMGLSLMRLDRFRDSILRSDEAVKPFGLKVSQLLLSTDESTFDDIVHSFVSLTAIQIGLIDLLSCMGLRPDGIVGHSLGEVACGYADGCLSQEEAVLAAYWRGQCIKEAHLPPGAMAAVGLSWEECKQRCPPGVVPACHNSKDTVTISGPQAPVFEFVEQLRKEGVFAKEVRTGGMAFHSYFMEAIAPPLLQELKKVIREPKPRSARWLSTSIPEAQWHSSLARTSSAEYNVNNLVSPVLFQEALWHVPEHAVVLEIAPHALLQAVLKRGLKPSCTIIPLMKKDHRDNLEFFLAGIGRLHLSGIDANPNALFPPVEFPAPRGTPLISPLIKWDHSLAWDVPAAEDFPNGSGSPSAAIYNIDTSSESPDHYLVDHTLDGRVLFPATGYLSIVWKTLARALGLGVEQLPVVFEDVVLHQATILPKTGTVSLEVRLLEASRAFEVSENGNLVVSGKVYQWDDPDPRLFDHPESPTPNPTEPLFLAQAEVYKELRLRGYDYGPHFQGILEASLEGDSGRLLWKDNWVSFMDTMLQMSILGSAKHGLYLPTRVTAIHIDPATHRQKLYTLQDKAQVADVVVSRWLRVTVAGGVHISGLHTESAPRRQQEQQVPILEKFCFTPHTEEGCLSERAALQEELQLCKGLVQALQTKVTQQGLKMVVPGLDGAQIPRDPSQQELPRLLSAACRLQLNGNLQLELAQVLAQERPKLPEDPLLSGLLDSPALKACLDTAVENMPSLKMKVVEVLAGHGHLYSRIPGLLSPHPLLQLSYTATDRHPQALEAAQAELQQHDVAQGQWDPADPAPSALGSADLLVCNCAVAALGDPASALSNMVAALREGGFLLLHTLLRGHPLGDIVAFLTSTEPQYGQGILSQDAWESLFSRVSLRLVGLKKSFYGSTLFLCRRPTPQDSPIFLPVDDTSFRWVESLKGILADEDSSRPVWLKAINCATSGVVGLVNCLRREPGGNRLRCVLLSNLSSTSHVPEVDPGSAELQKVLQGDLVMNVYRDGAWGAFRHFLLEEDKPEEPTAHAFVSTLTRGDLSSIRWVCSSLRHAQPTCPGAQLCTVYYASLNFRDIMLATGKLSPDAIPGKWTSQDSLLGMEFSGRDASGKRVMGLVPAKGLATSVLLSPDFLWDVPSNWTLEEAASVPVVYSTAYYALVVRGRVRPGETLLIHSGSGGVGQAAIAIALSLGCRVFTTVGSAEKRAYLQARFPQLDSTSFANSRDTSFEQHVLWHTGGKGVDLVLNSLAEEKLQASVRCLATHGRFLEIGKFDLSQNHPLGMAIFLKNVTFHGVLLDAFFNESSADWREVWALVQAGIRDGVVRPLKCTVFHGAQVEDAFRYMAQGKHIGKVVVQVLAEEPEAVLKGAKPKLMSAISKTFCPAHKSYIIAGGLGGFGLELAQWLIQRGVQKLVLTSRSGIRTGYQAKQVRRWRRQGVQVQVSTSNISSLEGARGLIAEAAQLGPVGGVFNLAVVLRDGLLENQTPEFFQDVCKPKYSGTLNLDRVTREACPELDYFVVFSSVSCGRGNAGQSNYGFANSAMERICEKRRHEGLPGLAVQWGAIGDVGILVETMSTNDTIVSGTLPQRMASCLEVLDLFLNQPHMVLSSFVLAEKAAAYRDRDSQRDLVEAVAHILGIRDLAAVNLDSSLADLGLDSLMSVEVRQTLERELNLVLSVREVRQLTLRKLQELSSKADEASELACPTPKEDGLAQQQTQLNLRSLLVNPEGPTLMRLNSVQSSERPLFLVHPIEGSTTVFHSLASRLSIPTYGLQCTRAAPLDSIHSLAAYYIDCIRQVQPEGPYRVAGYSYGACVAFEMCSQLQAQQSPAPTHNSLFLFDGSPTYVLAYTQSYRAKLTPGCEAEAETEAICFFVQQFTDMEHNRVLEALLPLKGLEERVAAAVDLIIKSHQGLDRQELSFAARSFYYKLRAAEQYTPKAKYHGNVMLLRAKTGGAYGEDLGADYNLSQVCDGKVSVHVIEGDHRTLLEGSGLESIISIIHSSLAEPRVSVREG

Fatty acid synthase [16] = biological target: T3, Fatty acid synthase; assay: inhibition of human FAS-TE enzyme activity – biochemical, kinetic fluorescence intensity, dose response (AID 624326); type: functional;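 further: rate of fluorescence rise from hydrolysis of a fluorogenic O-methyl fluorescein ester substrate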
[17] = tested on: Streptococcus sp. 'group A'; assay: Streptococcus pyogenes SK(-)GAS viability under kanamycin – luminescence, BacTiterGlo, confirmation, counter-screen for streptokinase expression inhibitor project, dose response (AID 1900); type: functional, organism-based
Streptokinase A = biological target: T4, Streptokinase A (Streptococcus pyogenes serotype M1, UniProt P10520); assay: viability-normalized secreted streptokinase activity reduction – plasminogen activation absorbance, OD405, dose response (AID 1914); type: functional, Streptococcus pyogenes M1 GAS;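 further: secreted streptokinase activity via plasminogen activation per viability signal from cell pellet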
T4 sequence (P10520 whole entry): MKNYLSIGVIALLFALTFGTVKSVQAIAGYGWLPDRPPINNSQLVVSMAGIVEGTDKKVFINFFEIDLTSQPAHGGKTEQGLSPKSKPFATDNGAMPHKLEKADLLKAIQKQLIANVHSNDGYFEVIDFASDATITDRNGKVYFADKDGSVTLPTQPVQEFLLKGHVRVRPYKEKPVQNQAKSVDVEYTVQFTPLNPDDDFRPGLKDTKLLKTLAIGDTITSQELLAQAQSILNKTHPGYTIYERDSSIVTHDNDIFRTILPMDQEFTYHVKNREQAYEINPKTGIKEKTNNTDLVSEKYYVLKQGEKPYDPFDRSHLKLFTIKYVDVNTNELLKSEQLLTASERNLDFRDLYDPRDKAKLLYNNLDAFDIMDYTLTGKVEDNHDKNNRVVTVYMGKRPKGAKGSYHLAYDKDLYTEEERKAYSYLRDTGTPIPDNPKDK

Streptococcus = assay: GAS UMAA2166 growth inhibition – luminescence, BacTiterGlo, counter-screen for streptokinase expression inhibitor project, dose response (AID 1915); type: functional, organism-based;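 further: potency for reduction of bacterial viability or growth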

With `COc1ccc(S(=O)(=O)Nc2ccc3c(c2)CC(=O)N([C@H](C)CO)C[C@@H](C)[C@@H](CN(C)S(=O)(=O)c2ccc(F)cc2)O3)cc1` the AC50 [1] was 2.24 µM (active).

With `CCOC(=O)C1=C(c2ccccc2)NC(=O)NC1c1ccc(O)c(Cl)c1` (stereo not drawn) the CC50 (Vero) was 22.5 µM (active), the EC50 (cells [2]) was > 350 µM (not active) and the EC50 (cells [3]) was > 350 µM (not active).

With `Cc1ccc(S(=O)(=O)Nc2ccc3c(c2)CC(=O)N([C@@H](C)CO)C[C@H](C)[C@H](CN(C)Cc2ccc(C(=O)Nc4ccccc4N)cc2)O3)cc1` the AC50 [1] was 2.31 µM (active).

With `O=C1C=C2SC3C[C@@]24CC1(O)[N+]1=c2c4c(c(O)c4c2=C(C=N4)CC1)N3` the GI50 (P388) was 0.869 µM (active), the GI50 (SN12K1) was 1.29 µM (inactive) and the GI50 (P388/ADR) was 1.3 µM (inactive).

For `O=C1SC(c2ccccc2)=C/C1=C\N1CCCCC1`, the AC50 (Cytochrome P450 3A4) was 25.1 µM (inconclusive), the EC50 [4] was > 50 µM (active) and the AC50 (Cytochrome P450 2D6) was 25.1 µM (inconclusive). The IC50 [5] was 45.9 µM (active) and the AC50 [6] was 2.83 µM (active).

With `COc1ccc(OC)c(/C=C2\SC(=S)N(Cc3cccnc3)C2=O)c1` the CC50 (Vero) was 14.8 µM (active).

For `C[C@@H]1CN([C@@H](C)CO)C(=O)Cc2cc(NC(=O)Nc3ccc(F)cc3)ccc2O[C@@H]1CN(C)Cc1ccc(Cl)c(Cl)c1`, the AC50 [1] was 3.42 µM (active).

For `Cc1noc(NS(=O)(=O)c2ccc(NC(=O)c3oc4ccc(F)cc4c3C)cc2)c1C`, the EC50 [7] was > 260 µM (inactive) and the AC50 [6] was 9.87 µM (active).

In the case of `CC1(CO)C(O)CCC2(C)C1C(O)CC1CC3CC12CCC3(O)CO` (stereo not drawn), the GI50 (P388) is reported as 11.2 µM (inactive), the GI50 (SN12K1) is reported as 209 µM (inactive) and the GI50 (P388/ADR) is reported as 187 µM (inactive).

For `CC[C@@]1(O)C(=O)OCc2c1cc1n(c2=O)Cc2cc3cc(O)ccc3nc2-1` [HYDROXYCAMPTOTHECIN], the GI50 (P388) was 0.0203 µM (active), the GI50 (SN12K1) was 0.01 µM (active) and the GI50 (P388/ADR) was 0.0304 µM (active).

For `Cc1nnc(N/N=C/c2ccccn2)nc1O`, the IC50 [8] was > 80 µM (inactive), the EC50 (BJ [9]) was 5.42 µM (active) and the EC50 [10] was 4.26 µM (active). For the same compound, the IC50 (Nonstructural protein 1) was 3.92 µM (active), the AC50 (INS1) was 1.56 µM (active) and the EC50 [11] was 2.72 µM (active). For the same compound, the EC50 [12] was 5.38 µM (inconclusive), the EC50 (BJ [13]) was 4.02 µM (active) and the EC50 (BJ [14]) was 1.69 µM (active). For the same compound, the EC50 (cells [2]) was > 350 µM (not active) and the EC50 (cells [3]) was 7.24 µM (active).

With `CC1=CC2=C(C=O)C(=O)[C@](C)(O)[C@@H](O)C2=CO1` the GI50 (P388) was 15 µM (inactive), the GI50 (SN12K1) was 30.4 µM (inactive) and the GI50 (P388/ADR) was 14.5 µM (inactive).

For `CCOCC(=O)N(C)c1cccc2c3c(n(C)c12)CCCCC3`, the GI50 (P388) was > 100 µM (inactive), the GI50 (SN12K1) was > 100 µM (inactive) and the GI50 (P388/ADR) was > 100 µM (inactive).

For `COc1cc(C2C(=O)c3ccccc3C2=O)ccc1O`, the IC50 [5] was 16.1 µM (active) and the AC50 [6] was 3.44 µM (active).

In the case of `N=C(N)/N=N/c1c(O)[nH]c2ccc(Br)cc12`, the AC50 [6] is reported as 5.14 µM (active).

For `COc1ccc(CNC(=O)CC2C[C@H](C(=O)N3CCOCC3)[C@@]3(CCC4CCCC4)c4[nH]c5ccccc5c4CCN3C2=O)cc1OC` (stereo partly drawn), the IC50 (Fatty acid synthase [15]) was 3.67 µM (active) and the IC50 (Fatty acid synthase [16]) was 4.73 µM (active).

For `C[C@H](CO)N1C[C@H](C)[C@@H](CN(C)S(=O)(=O)c2ccc(Cl)cc2)Oc2c(NC(=O)c3nc4ccccc4s3)cccc2C1=O`, the AC50 [1] was 1.73 µM (active).

In the case of `COC1CC(C)C(OC)c2cc(O)cc(c2O)NC(=O)/C(C)=C/C=C\C(C)C(OC(N)=O)/C(C)=C\C(C)C1OC` (stereo not drawn), the GI50 (P388) is reported as 0.0693 µM (active) and the GI50 (P388/ADR) is reported as 1.55 µM (inactive).

In the case of `COCCCn1c(N)c(C(=O)Nc2ccccc2)c2nc3ccccc3nc21`, the CC50 (Vero) is reported as > 25 µM (active), the EC50 [17] is reported as 16.9 µM (active) and the EC50 (Streptokinase A) is reported as > 150 µM (not active). For the same compound, the EC50 (Streptococcus) was 32.8 µM (active).

In the case of `Fc1ccc(C2Nc3cccc4cccc(c34)N2)cc1`, the AC50 [6] is reported as 16.4 µM (active).
